{"source": "patent US7728105B2", "about": "“Peptides impairing PBX dependent gene regulation” (St. George's Hospital Medical School, priority 2002, dated 2010)", "type_in_all_cases": "cell-based, human", "key": {"[1]": {"tested_on": "PBX1, 2 and 3 association with HOX proteins", "assay": "Cross-linking and Western blot of PBX proteins in KG1a cells (Example 2)", "conditions": "24 hours, 1 μM peptide, EDC cross-linking", "experimental": "HXP and control peptides were as described in Example 1. KG1a cells were grown as described in Example 1. KG1a cells were cultured for 24 hours without treatment, or in the presence of 1 μM HXP peptide or control peptide. The cells were harvested and lysed. One aliquot of the cells was subject to cross-linking. Frozen cells were lysed using standard techniques and […] of lysate was incubated for 30 minutes at room temperature in 4 mM 1-ethyl-3-[3-(dimethyl-amino)propyl]carbodimide (EDC), 4 mM sulpho-NHS, 20 mM HEPES (pH 7.5), 5 mM MgCl2, and 0.03% (w/v) […] to cross-link non-covalently associated proteins. The reaction was stopped by the addition of ammonium acetate to a final concentration of 50 mM. The other aliquot was frozen without cross-linking.\nProteins were extracted from the cells of both aliquots by standard techniques and separated by gel electrophoresis. The gels were probed by Western blot with an antibody raised against PBX1, 2 and 3 (sc-888, Santa Cruz Inc. USA) or an anti-beta actin antibody (sc-1615, Santa Cruz Inc. USA)."}, "[2]": {"tested_on": "AC133+ cells", "assay": "RT-PCR of CD38 and HOX genes in AC133+ cells", "experimental": "(§1) Total RNA was extracted from cultured human cells using the Rneasy mini kit (Quiagen) and following the manufacturer's instructions. 3 μg of RNA was used in subsequent reverse transcription reactions. The RNA was mixed with a poly T15 oligo to 5 microgrammes/ml and heated to 75° C. for 5 minutes. After cooling on ice, the following additional reagents were added; dNTPs to 0.4 mM, RNase OUT (Promega) to 1.6 U/μl, Moloney Murine Leukemia Virus Reverse Transcriptase (M-MLRvT) RnaseH— point mutant (Promega) to 8 U/μl and the appropriate buffer (supplied by the manufacturer) to x1 concentration. The mixture was incubated for one hour at 37° C., heated to 70° C. for two minutes and cooled on ice.\n(§2) PCR reactions were all performed in a total volume of 40 μl. For each we used 1 μl of the M-MLRvT reaction (as described above), 0.2 nmols of each primer and 20 microliters of Redimix pre-mixed PCR components (Sigma). All reactions were cycled at 94° C. for 30 seconds, 55° C. for 30 seconds and 72° C. for 60 seconds. 30 cycles were used for all primer sets except those for beta-actin, for which 23 cycles were used."}, "[3]": {"tested_on": "KG1a, HL60 and U937 cells", "assay": "Cell cycle of leukaemic cell lines synchronised in G0-G1 with L-mimosine", "conditions": "HL60 and U937 synchronised in G0-G1, over 48 hours, vs control peptide", "experimental": "The proportion of KG1a, HL60 and U937 cells in G0-G1 phase of the cell cycle upon HXP peptide treatment was compared to CXP4. Cells were synchronised in G0-G1 phase of the cell cycle by exposure to 0.5 mM L-mimosine. Results are expressed as the mean percentage of four experiments (+/−SE).\nKG1a, HL60 and U937 cell cycle profiles were analysed over 48 hours in culture with HXP peptide or the control peptide (FIG. 10). The effect of HXP peptide on non-synchronised cells varied considerably (data not shown)."}, "[4]": {"tested_on": "KG1a cells", "assay": "RT-PCR of stem/progenitor and maturation markers in KG1a cells", "conditions": "7 days of treatment", "experimental": "as §1, §2"}, "[5]": {"tested_on": "CD133+ cells", "assay": "Cell cycle status of CD133+ cells (G0-G1)", "experimental": "Cells to be investigated were harvested and washed in PBS at 400 g for 10 min. Pelleted cells were then fixed in ice-cold 70% ethanol. Fixed cells were subsequently washed twice in PBS (600 g; 10 min) and incubated in 100 μl of ribonuclease (100 μg/ml; Sigma Aldrich) for 5 min (room temperature) prior to addition of 400 μl of propidium iodide (50 μg/ml; Sigma Aldrich) and 30 minutes incubation (37° C.). Cells were then analysed for cell cycle status on FACScan flow cytometer (Becton Dickinson, USA) and using WinMDI and Cylchred softwares.\nCD133+ cells (another name for AC133+ cells) were seeded in duplicate at 4×10^4 cells/ml in IMDM (Life Technologies), 10% FCS (Sigma Aldrich) and gentamycin (50 μg/ml Life Technologies) and Thrombopoietin (TPO) 10 ng/ml, Flt3-Ligand (FL) 50 ng/ml & c-KitL (K) 20 ng/ml), all obtained from R and D systems Ltd., UK. (Forraz et al., 2002). The HXP peptide (N-term: WYPWMKKHHRQIKIWFQNRRMKWKK: C-term; Eurogentec, Belgium) and control CXP peptide (N-term: WCCLADRHGRQIKIWFQNRRMKWKK: C-term; Eurogentec, Belgium) were added to culture medium at a concentration of 20 μg/ml. To withdraw peptides from culture, cells were washed twice in IMDM or RPMI and reseeded at prewash cell densities. Primary cells were cultured for 3 weeks at 37° C., 5% CO2 in humidified atmosphere and enumerated by a […] exclusion method with a heamocytometer."}, "[6]": {"tested_on": "KG1a, HL60 and U937 leukaemic cell lines", "assay": "RT-PCR of HOX/PBX target genes in leukaemic cell lines (Example 3)", "experimental": "Total RNA was isolated from liquid nitrogen snap-frozen cells using RNeasy Mini Kit protocol (Qiagen, Crawley, UK). 50 μl reverse transcription reactions using 1 μg of RNA per reaction heated at 75° C. cDNA with 1 μg of oligo-dT for 10 mins. Samples were cooled on ice and mixed with 200 units of M-MLV reverse transcriptase (Promega, Southampton, UK) in its associated buffer, 400 μM of dNTPs (Promega), and 40 units of RNAseout (Invitrogen, Paisley, UK). Samples were then incubated at 37° C. for one hour and finally heated at 75° C. for 5 mins. PCR reactions (35 cycles, 94° C. 30 sec, 55° C. 30 sec, 72° C. 1 min) were carried out in a 20 μl reaction using JumpStart ReadyMix REDTaq DNA polymerase (Sigma-Aldrich) using an identical amount of cDNA per reaction with 1 μM of forward and reverse primers."}}}
{"substance": "WYPWMKKHHRQIKIWFQNRRMKWKK [HXP peptide]", "values": [{"measurement": "association of PBX proteins with other proteins (HOX proteins)", "setting": "[1]", "value": "none of the PBX isoforms from the HXP peptide treated cells were associated with other proteins"}, {"measurement": "CD38 gene expression", "setting": "[2]", "value": "up-regulation"}, {"measurement": "HOX B4, B8 and A9 gene expression", "setting": "[2]; from as early as day 3", "value": "down-regulated"}, {"measurement": "proportion of cells leaving phase G0-G1 and entering the cell cycle", "setting": "[3]", "value": "induces a significantly higher proportion of cells to leave the phase G0-G1 and enter the cell cycle"}, {"measurement": "markers of maturation/differentiation (CD38)", "setting": "[4]", "value": "elevated"}, {"measurement": "markers of stem/progenitor cells (AC133, CD34, HOXB4, HOXB8 and HOXA9)", "setting": "[4]", "value": "diminished"}, {"measurement": "proportion of cells in phase G0-G1 upon withdrawing HXP peptide", "setting": "[5]; compared to the HXP peptide-treated group", "value": "lower proportion of cells remained in phase G0-G1"}, {"measurement": "more cells in phase G0-G1 of the cell cycle than the control group", "setting": "[5]; day 18 of culture, vs CXP4 treated cells, p<0.05", "value": 9.9, "unit": "%"}, {"measurement": "MMP19 expression", "setting": "[6]; KG1a", "value": "down-regulated"}, {"measurement": "MMP1 expression", "setting": "[6]; KG1a and U937 cells", "value": "down-regulated"}, {"measurement": "CD38 gene expression", "setting": "[6]; KG1a cell line", "value": "up-regulation"}, {"measurement": "CD133, CD34, HOXB4, B8 and A9 gene expression", "setting": "[6]; KG1a cell line", "value": "down-regulation"}, {"measurement": "expression of the other genes examined", "setting": "[6]; KG1a, HL60, U937, except CDC25, MMP1, MMP19 as stated", "value": "did not alter"}, {"measurement": "CD38 gene expression", "setting": "[6]; U937 and HL60 cell lines", "value": "up-regulated"}, {"measurement": "HOXB4 and A9 gene expression", "setting": "[6]; U937 and HL60 cell lines", "value": "down-regulation"}, {"measurement": "HOXB8 gene expression", "setting": "[6]; U937 and HL60 cell lines", "value": "unchanged"}, {"measurement": "CDC25 expression", "setting": "[6]; U937 cells", "value": "down-regulated"}, {"measurement": "N-RAS oncogene expression", "setting": "[6]; all of the cell lines (KG1a, HL60, U937)", "value": "completely down-regulated"}]}
